We go through two compounds from paper PMC10099813, “Stafiba: A STAT5‐Selective Small‐Molecule Inhibitor” (Chembiochem, 2022).

In assay [1] the target is T1, STAT5a (Homo sapiens, UniProt P42229).
T1 sequence (P42229 1-794): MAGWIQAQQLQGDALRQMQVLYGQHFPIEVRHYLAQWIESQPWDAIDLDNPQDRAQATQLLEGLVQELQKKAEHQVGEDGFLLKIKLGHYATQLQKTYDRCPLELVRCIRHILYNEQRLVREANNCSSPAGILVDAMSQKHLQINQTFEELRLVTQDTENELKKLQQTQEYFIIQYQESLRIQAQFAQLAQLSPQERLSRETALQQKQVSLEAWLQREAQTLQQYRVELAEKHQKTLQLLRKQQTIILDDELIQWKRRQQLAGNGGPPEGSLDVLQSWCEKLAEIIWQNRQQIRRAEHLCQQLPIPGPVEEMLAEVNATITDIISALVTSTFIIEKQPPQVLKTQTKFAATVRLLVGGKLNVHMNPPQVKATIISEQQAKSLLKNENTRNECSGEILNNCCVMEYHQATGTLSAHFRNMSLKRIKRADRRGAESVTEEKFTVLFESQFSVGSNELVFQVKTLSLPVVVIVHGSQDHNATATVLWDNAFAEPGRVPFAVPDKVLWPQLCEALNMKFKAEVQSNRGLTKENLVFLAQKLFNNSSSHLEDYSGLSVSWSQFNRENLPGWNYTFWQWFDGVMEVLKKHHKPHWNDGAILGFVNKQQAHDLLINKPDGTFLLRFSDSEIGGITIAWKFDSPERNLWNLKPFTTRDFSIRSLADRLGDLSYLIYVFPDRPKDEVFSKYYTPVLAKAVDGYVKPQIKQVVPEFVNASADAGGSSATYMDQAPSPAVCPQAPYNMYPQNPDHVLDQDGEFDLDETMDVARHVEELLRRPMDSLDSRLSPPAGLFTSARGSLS
The experiment in a line: Competitive fluorescence polarization (FP) binding assay, STAT5a SH2 domain. Particulars: for Ki / IC50: FP assay, 2 % DMSO (10 % DMSO for 10); for Ki: Ki calculated from IC50 (n=3) via published equation; for IC50: n=3 unless stated. How it is done:
(§1) Fluorescence polarization assays: Competitive binding assays based on fluorescence polarization were carried out essentially as previously described.[[4a]] Unless stated otherwise, final concentrations of the buffer components were: 10 mM Tris (pH 8.0), 50 mM NaCl, 1 mM EDTA, 1 mM DTT, 0.1 % (v/v) Nonidet P‐40 substitute, and 2 % DMSO. Proteins were used at concentrations which reflect the Kd values of the interactions between the fluoropeptide and the protein preparations. Protein concentrations used for activity analysis of compound 5 were 91 nM for STAT1, 107 nM for STAT3, 28 nM for STAT4, 122 nM for STAT5a, 56 nM for STAT5b and 101 nM for STAT6. Protein concentrations used for activity analysis of AC‐4‐130 were 103 nM for STAT5a and 62 nM for STAT5b. […] Final concentration of all fluorescent‐labelled peptides was 10 nM. The following peptides were used in assays: 5‐carboxyfluorescein‐GpYDKPHVL for STAT1; 5‐carboxyfluorescein‐GpYLPQTV‐NH2 for STAT3; 5‐carboxyfluorescein‐GpYLPQNID for STAT4; 5‐carboxyfluorescein‐GpYLVLDKW for STAT5a/5b, and 5‐carboxyfluorescein‐GpYVPWQDLI for STAT6. Protein and test compounds were incubated for 1 h prior to addition of the fluorescein‐labeled peptide. Fluorescence polarization was measured after another 60 min using an Infinite F500 plate reader (Tecan). IC50 values were converted to Ki‐values using the published equation.[13]

Assay [2] has as its target T2, STAT4 (Homo sapiens, UniProt Q14765).
T2 sequence (Q14765 1-748): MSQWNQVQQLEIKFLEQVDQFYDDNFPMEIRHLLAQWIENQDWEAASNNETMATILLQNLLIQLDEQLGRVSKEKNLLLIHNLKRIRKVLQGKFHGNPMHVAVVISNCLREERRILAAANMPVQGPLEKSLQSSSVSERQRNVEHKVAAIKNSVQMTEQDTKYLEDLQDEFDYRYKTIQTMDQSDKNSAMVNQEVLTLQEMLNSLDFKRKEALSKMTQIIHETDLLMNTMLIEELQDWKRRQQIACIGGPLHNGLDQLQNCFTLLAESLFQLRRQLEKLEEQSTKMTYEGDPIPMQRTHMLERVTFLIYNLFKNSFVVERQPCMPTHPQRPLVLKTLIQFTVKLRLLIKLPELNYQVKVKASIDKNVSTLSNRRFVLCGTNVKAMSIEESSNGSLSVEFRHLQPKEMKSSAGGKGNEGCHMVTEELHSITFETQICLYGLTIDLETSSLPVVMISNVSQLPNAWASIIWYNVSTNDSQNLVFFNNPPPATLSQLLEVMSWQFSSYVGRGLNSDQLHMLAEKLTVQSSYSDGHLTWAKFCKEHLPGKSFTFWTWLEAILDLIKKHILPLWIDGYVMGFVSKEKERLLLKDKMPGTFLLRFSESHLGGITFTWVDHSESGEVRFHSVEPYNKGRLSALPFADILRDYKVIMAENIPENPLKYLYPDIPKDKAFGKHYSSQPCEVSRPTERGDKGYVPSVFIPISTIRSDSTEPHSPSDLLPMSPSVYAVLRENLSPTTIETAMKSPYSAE
The experiment in a line: Competitive fluorescence polarization (FP) binding assay, STAT4. Particulars: for IC50: 2 % DMSO for 5, 10 % DMSO for 10; for Ki: Ki calculated from IC50, 2 % DMSO for 5, 10 % DMSO for 10. Here is the method:
as §1

In general, Ki refers to the equilibrium dissociation constant of an inhibitor or competing ligand from its target. What is called IC50 is the midpoint of a concentration-inhibition curve. Low readings indicate higher potency, high ones lower potency. Regarding `O=C(CNc1ccc(C(=O)Nc2ccc(Oc3ccccc3)cc2)cc1)NCc1cc(OP(=O)(O)O)cc(OP(=O)(O)O)c1` [compound 5], the Ki was 3.1 ± 0.1 µM in assay [1] and 5.3 ± 1.3 µM in assay [2]. Further, the results for the IC50 in assay [1] and in assay [2] were 6.4 ± 0.2 µM and 11.3 ± 2.7 µM, respectively.

Regarding `O=C(CNc1ccc(C(=O)Nc2ccc(Oc3ccccc3)cc2)cc1)NCc1cc(C(F)(F)P(=O)(O)O)c(F)c(C(F)(F)P(=O)(O)O)c1` [compound 10], in assay [1], the Ki is 3 ± 0.4 µM and the IC50 is 6.2 ± 0.7 µM. Moreover, the “activity compared with AC-4-130 in FP assay against the SH2 domain of STAT5a” value in assay [1] (Figure 5C) was “substantially more active than AC‐4‐130”. For the same compound, in assay [2], the IC50 came to 11.2 ± 1.2 µM and the Ki was 5.3 ± 0.6 µM.
